Experimental data from PubChem BioAssay (NCI).
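These data come from cells grown in 96-well plates and exposed to compound for 48 hours at five concentrations. Here, GI50 denotes the concentration required for 50% inhibition of growth. TGI: total growth inhibition.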

Assays:
Assay in all cases: NCI tumour cell line growth inhibition, 48 h
SNB-78 CNS = system: SNB-78 CNS
P388 leukemia = system: P388 leukemia
SN12K1 renal = system: SN12K1 renal
UACC-257 melanoma = system: UACC-257 melanoma
NCI-H23 lung = system: NCI-H23 lung
HOP-92 NSCLC = system: HOP-92 NSCLC
DLD-1 colon = system: DLD-1 colon
SF-268 CNS = system: SF-268 CNS
COLO 205 colon = system: COLO 205 colon
OVCAR-8 ovarian = system: OVCAR-8 ovarian
OVCAR-3 ovarian = system: OVCAR-3 ovarian
CAKI-1 renal = system: CAKI-1 renal
MDA-MB-231 breast = system: MDA-MB-231 breast
SK-OV-3 ovarian = system: SK-OV-3 ovarian
M19-MEL melanoma = system: M19-MEL melanoma
NCI-H460 lung = system: NCI-H460 lung
RXF 393 renal = system: RXF 393 renal
SK-MEL-5 melanoma = system: SK-MEL-5 melanoma
EKVX NSCLC = system: EKVX NSCLC
MCF7 breast = system: MCF7 breast
PC-3 prostate = system: PC-3 prostate
HT29 colon = system: HT29 colon
DMS 114 small cell lung = system: DMS 114 small cell lung
OVCAR-5 ovarian = system: OVCAR-5 ovarian
HL-60(TB) leukemia = system: HL-60(TB) leukemia
786-0 renal = system: 786-0 renal
SW-620 colon = system: SW-620 colon
RPMI-8226 leukemia = system: RPMI-8226 leukemia
K-562 leukemia = system: K-562 leukemia
UO-31 renal = system: UO-31 renal
HCT-15 colon = system: HCT-15 colon
KM20L2 colon = system: KM20L2 colon
HCC-2998 colon = system: HCC-2998 colon
P388/ADR leukemia = system: P388/ADR leukemia
MOLT-4 leukemia = system: MOLT-4 leukemia
ACHN renal = system: ACHN renal
HOP-18 NSCLC = system: HOP-18 NSCLC
KM12 colon = system: KM12 colon
BT-549 breast = system: BT-549 breast
SK-MEL-28 melanoma = system: SK-MEL-28 melanoma
MDA-MB-435 = system: MDA-MB-435
SF-539 CNS = system: SF-539 CNS
LOX IMVI melanoma = system: LOX IMVI melanoma
DU-145 prostate = system: DU-145 prostate
IGROV1 ovarian = system: IGROV1 ovarian
TK-10 renal = system: TK-10 renal
A549 NSCLC = system: A549 NSCLC
M14 melanoma = system: M14 melanoma
NCI-H226 lung = system: NCI-H226 lung
SNB-19 CNS = system: SNB-19 CNS
MALME-3M melanoma = system: MALME-3M melanoma
SN12C renal = system: SN12C renal
SF-295 CNS = system: SF-295 CNS
HS 578T breast = system: HS 578T breast
SK-MEL-2 melanoma = system: SK-MEL-2 melanoma
A498 renal = system: A498 renal
NCI-H522 lung = system: NCI-H522 lung
HOP-62 NSCLC = system: HOP-62 NSCLC
HCT-116 colon = system: HCT-116 colon
OVCAR-4 ovarian = system: OVCAR-4 ovarian
XF 498 CNS = system: XF 498 CNS
U251 CNS = system: U251 CNS
DMS 273 small cell lung = system: DMS 273 small cell lung
UACC-62 melanoma = system: UACC-62 melanoma
NCI/ADR-RES ovarian = system: NCI/ADR-RES ovarian
T-47D breast = system: T-47D breast
MDA-N = system: MDA-N

COC(=O)C12OCC34C(CC5C(C)=C(O)C(=O)CC5(C)C3C(O)C1O)OC(=O)C(OC(=O)C=C(C)C)C24 (configuration not stated)
TGI (SNB-78 CNS): > 500000 nM
TGI (P388 leukemia): > 500000 nM
TGI (SN12K1 renal): > 500000 nM
GI50 (UACC-257 melanoma): 231 nM
GI50 (NCI-H23 lung): < 215 nM
TGI (HOP-92 NSCLC): 494000 nM
TGI (DLD-1 colon): > 79300 nM
GI50 (SF-268 CNS): 344 nM
TGI (SF-268 CNS): > 500000 nM
TGI (COLO 205 colon): > 500000 nM
GI50 (OVCAR-8 ovarian): 222 nM
TGI (OVCAR-3 ovarian): > 500000 nM
GI50 (CAKI-1 renal): 899 nM
TGI (MDA-MB-231 breast): 90.5 nM
TGI (SK-OV-3 ovarian): > 500000 nM
TGI (M19-MEL melanoma): > 500000 nM
TGI (NCI-H460 lung): > 316000 nM
GI50 (RXF 393 renal): 231 nM
GI50 (SK-MEL-5 melanoma): < 215 nM
TGI (EKVX NSCLC): > 500000 nM
TGI (MCF7 breast): > 500000 nM
TGI (PC-3 prostate): 631 nM
GI50 (HT29 colon): < 215 nM
TGI (HT29 colon): > 500000 nM
TGI (DMS 114 small cell lung): > 460000 nM
GI50 (OVCAR-5 ovarian): 245 nM
TGI (HL-60(TB) leukemia): > 500000 nM
TGI (786-0 renal): 689 nM
GI50 (SW-620 colon): 231 nM
TGI (SW-620 colon): > 500000 nM
TGI (RPMI-8226 leukemia): > 500000 nM
GI50 (K-562 leukemia): < 215 nM
GI50 (UO-31 renal): 576 nM
GI50 (HCT-15 colon): 456 nM
TGI (KM20L2 colon): > 500000 nM
GI50 (HCC-2998 colon): < 156 nM
TGI (P388/ADR leukemia): > 500000 nM
TGI (MOLT-4 leukemia): > 500000 nM
TGI (ACHN renal): 463 nM
TGI (HOP-18 NSCLC): > 500000 nM
GI50 (KM12 colon): < 215 nM
TGI (KM12 colon): > 500000 nM
TGI (BT-549 breast): 726 nM
GI50 (SK-MEL-28 melanoma): < 215 nM
TGI (MDA-MB-435): 905 nM
TGI (SF-539 CNS): > 500000 nM
TGI (LOX IMVI melanoma): > 500000 nM
TGI (DU-145 prostate): > 8120 nM
TGI (IGROV1 ovarian): > 500000 nM
TGI (TK-10 renal): 582 nM
TGI (A549 NSCLC): > 500000 nM
TGI (M14 melanoma): 359 nM
GI50 (NCI-H226 lung): < 215 nM
GI50 (SNB-19 CNS): < 215 nM
TGI (SNB-19 CNS): > 500000 nM
GI50 (MALME-3M melanoma): < 215 nM
GI50 (SN12C renal): 320 nM
GI50 (SF-295 CNS): 232 nM
TGI (HS 578T breast): 2030 nM
GI50 (SK-MEL-2 melanoma): < 215 nM
TGI (A498 renal): > 500000 nM
GI50 (NCI-H522 lung): < 215 nM
TGI (HOP-62 NSCLC): > 500000 nM
GI50 (HCT-116 colon): 226 nM
GI50 (OVCAR-4 ovarian): > 500000 nM
TGI (XF 498 CNS): > 476000 nM
TGI (U251 CNS): > 500000 nM
TGI (DMS 273 small cell lung): > 500000 nM
GI50 (UACC-62 melanoma): < 215 nM
GI50 (NCI/ADR-RES ovarian): 4340 nM
TGI (T-47D breast): 78.9 nM
TGI (MDA-N): 481 nM
